Assay results: patent US6702995B1, “Delivery system” (TheRyte, Ltd., priority 1997, dated 2004)

Tests used:
HELA cell line = experiment: Clonogenic cell survival assay, HELA; format: cell-based, human
Method: (§1) TAXOL (paclitaxel) is a powerful cytotoxic agent but is very difficult to use because it is almost insoluble in water or blood plasma. For in vivo or in vitro use, it is generally dissolved in dimethyl sulphoxide (DMSO) or in a complex commercial pharmaceutical preparation. […] The TAXOL (paclitaxel) concentration was varied over the range of 1 to 8nM. These carrier solutions were labeled “polymer” series. Similarly, the same range of TAXOL (paclitaxel) solution concentrations was prepared in neat dimethyl sulphoxide as solvent; these carrier solutions were labeled “DMSO” series. Finally, a series of commercially available pharmaceutical preparations was used, which contained TAXOL (paclitaxel) in the concentration range of 1 to 8 nM; these carrier solutions were labeled “commercial” series. […] The four series of solutions were compared for their cytotoxic action by a clonogenic cell survival assay using three human in vitro cell lines, viz., HELA (originally explanted from cancer of the cervix), HRT-18 (originally explanted from […]) and MGHU-1 (originally explanted from a bladder cancer).

HRT-18 cell line = experiment: Clonogenic cell survival assay, HRT-18; format: cell-based, human; settings: HRT-18, clonogenic cell survival
Method: as §1

MGHU-1 cell line = experiment: Clonogenic cell survival assay, MGHU-1; format: cell-based, human; settings: MGHU-1, clonogenic cell survival
Method: as §1

Method for cancer cells (Molt 4): Typically, for a porphyrin sensitizer, the concentration was determined by ultraviolet/visible measurement of absorption at the Soret wavelength near 420 nm.
The cell growth medium was prepared in three varieties. Each variety contained the nutrients required for cell growth. One variety contained neither sensitizer nor polymer, a second contained polymer but no sensitizer and a third contained both polymer and sensitizer.
The resulting solution was adjusted to pH 7.2 by careful addition of aqueous sodium hydroxide solution (5 M) and finally once more filtered through a 0.22 μm filter. The resulting solution was used as the growth medium containing both sensitizer and polymer in the following experiments. A growth medium containing only polymer was prepared as here but omitting the sensitizer, viz, instead of the sensitizer solution (85 mL), an equal volume of distilled water containing the same amount of polymer but no sensitizer was added. […]
For each growth medium, 10 mL of a suspension containing 10^7-10^8 cells/mL were centrifuged and the cells were resuspended in one of the growth media described above (45mL) to give three cell preparations: A, containing sensitizer plus polymer; B, containing neither sensitizer nor polymer; C, containing polymer but no sensitizer. […] Its amount could be determined by visible spectroscopy as described above. […]

COc1cc(NS(C)(=O)=O)ccc1Nc1c2ccccc2nc2ccccc12 [amsacrine]
cytotoxic action (in words) (HELA cell line): effective
cytotoxic action (in words) (HRT-18 cell line): effective
cytotoxic action (in words) (MGHU-1 cell line): effective

C1=Cc2nc1c(-c1ccccc1)c1ccc([nH]1)c(-c1ccccc1)c1nc(c(-c3ccccc3)c3ccc([nH]3)c2-c2ccccc2)C=C1 [sensitizer, 5,10,15,20 tetrakis phenyl porphyrin]
cell growth (cell count) (cancer cells (Molt 4)): not inhibited
